Measured values as given in US10064888B2, “Pectin based nanoparticles” (TECHNION RESEARCH & DEVELOPMENT FOUNDATION LTD., priority 2013, dated 2018).

Experiment: Residual curcumin during simulated shelf life, absorbance at 415 nm
Type: physicochemical
Details: over a period of 11 days, with respect to time 0
Method: FIG. 3. Is a graph depicting the SBP protective effect. Residual percentage of curcumin (with respect to time 0) during simulated shelf life, without and with protection by SBP. Curcumin was determined by absorbance at 415 nm (maximal absorbance of curcumin) as determined by a UV-Visible light spectrophotometer.

For `COc1cc(/C=C/C(=O)CC(=O)/C=C/c2ccc(O)c(OC)c2)ccc1O` [curcumin], the “decrease of curcumin during simulated shelf life” value was “approximately 40%”.
